# Measured values published in patent US9499811B2, “Ligation enhancement” (New England Biolabs, Inc., priority 2011, dated 2016).
# Entries after “also recorded” stand apart in the source; their conditions may differ.
# Tests used:
# Assay type in all cases: biochemical
# Set-up in all cases: purchased NEB (New England Biolabs), Ipswich, Mass. #M0202
# [1] = biological target: T1, T4 DNA ligase (Enterobacteria phage T4, UniProt P00970); conditions: enhancer at 12%; no addition = 1-fold; single-base overhangs
# T1 sequence (P00970 1-487): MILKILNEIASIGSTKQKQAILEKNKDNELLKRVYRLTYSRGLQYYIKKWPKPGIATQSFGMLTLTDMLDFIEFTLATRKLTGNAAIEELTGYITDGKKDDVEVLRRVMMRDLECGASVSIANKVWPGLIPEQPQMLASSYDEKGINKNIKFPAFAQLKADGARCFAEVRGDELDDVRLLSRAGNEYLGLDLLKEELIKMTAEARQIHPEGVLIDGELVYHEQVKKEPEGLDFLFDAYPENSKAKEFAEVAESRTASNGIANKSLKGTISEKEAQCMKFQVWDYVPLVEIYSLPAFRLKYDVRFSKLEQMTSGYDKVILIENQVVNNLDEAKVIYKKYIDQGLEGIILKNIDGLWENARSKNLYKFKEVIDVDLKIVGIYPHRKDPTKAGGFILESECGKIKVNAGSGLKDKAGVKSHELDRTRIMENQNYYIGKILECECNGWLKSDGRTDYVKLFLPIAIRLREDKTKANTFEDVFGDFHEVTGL
# Experimental: All were tested side-by-side using two ligation test systems which were: (a) cloning of a 500 bp amplicon made by Taq DNA polymerase into a T-tailed vector; and (b) recircularization of an AhdI-linearized plasmid. Both ligation test systems used DNA with single-base overhangs.
# (§1) The reaction mixtures contained DNA at 50-100 ng and 1,2-PrD at different concentrations. 1 μl of regular concentration (NEB, Ipswich, Mass., #M0202; 400 units) or 1 μl of high concentration T4 DNA ligase (NEB, Ipswich, Mass., #M0202; 2000 units) was then added to a final volume of 21 μl in 1×T4 DNA Ligase Buffer (NEB, Ipwich, Mass., #B0202) or 1× Quick Ligase™ Buffer (NEB, Ipswich, Mass., #B2200).
# A standard assay uses 100 ng DNA, 1 μl of T4 DNA ligase, 21 μl 1×T4 DNA ligase buffer and varying amounts of enhancer.
# Ligation reactions were incubated for 10 min at room temperature (25° C.) unless otherwise stated, then placed on ice for 2 min. In some experiments the ligase was heat-killed by incubation at 65° C. for 20 min. The ligation reactions were analyzed by 1% agarose gel electrophoresis to identify DNA species and determine the efficiency of […].
# A volume of 2 μl from each ligation reaction was incubated with 50 μl of chemically competent (NEB, Ipswich, Mass., #C2987I) or electrocompetent (NEB, Ipswich, Mass., #C2989K) DH5 alpha E. coli cells.
# For chemically competent cell transformations, the cell-DNA mixture was incubated on ice for 30 min, heat-shocked at 42° C. for 30 sec, then returned to ice for 5 min. A volume of 950 μl SOC medium (2% vegetable peptone or Tryptone, 0.5% yeast extract, 10 mM NaCl, 2.5 mM KCl, 10 mM MgCl2, 10 mM MgSO4 and 20 mM glucose) was added to the cell-DNA mixture, followed by a one hr 37° C. outgrowth period with agitation. A volume of 25-50 μl of appropriately diluted cells in SOC was spread onto Rich Agar plates (composition per liter: 10 g soy peptone, 5 g yeast extract, 10 g NaCl, 1 g MgCl2-6H2O, 1 g dextrose, 15 grams agar) supplemented with 100 μg/ml ampicillin. Plates were inverted and incubated for 16 hrs at 37° C., followed by quantification of total colony numbers.
# [2] = biological target: T1, T4 DNA ligase; test: Ligase activity titer assay with blunt-ended PhiX174-HaeIII fragments, agarose gel; conditions: 6% 1,2-PrD, two-fold ligase dilution series, 30 min 25 C
# Experimental: The ligase activity in the absence and presence of 6% 1,2-PrD was determined in a two-fold ligase dilution series. The symbol “*” denotes equivalent levels of ligation, showing that ligation efficiency was enhanced 4-fold. The first and last lanes contain DNA markers.
# The effectiveness of the ligation enhancer was also established for blunt-ended DNA as follows: 20 μl reactions were set up containing two-fold serial dilutions of 2000 units of T4 DNA ligase, 200 ng PhiX174-HaeIII digest (NEB, Ipswich, Mass., #N3026), and regular ligase buffer with 200 ng phiX174-HaeIII blunt-ended fragments per 20 μl, in the absence and presence of 6% 1,2-PrD. The reactions were incubated for 30 min at room temperature (25° C.) followed by electrophoresis on a 1% agarose gel. 1,2-PrD enhanced T4 DNA ligase activity 4-fold in this titer reaction.
# [3] = biological target: T1, T4 DNA ligase; test: Transformants after ligation of AhdI-linearized pUC19 in T4 DNA ligase buffer vs Quick Ligase buffer containing PEG 6000; conditions: 1,2-PrD in regular ligase buffer, chemically competent cells
# Experimental: The Y-axis is transformants per 10 pg DNA (transformations w/chemically competent cells.) The X-axis is regular ligase buffer (RLB) with the percentage of added 1,2-PrD given in parentheses. The quick ligase buffer (QLB) has PEG in it to enhance ligation.
# as §1
# For chemically competent cell transformations, the cell-DNA mixture was incubated on ice for 30 min, heat-shocked at 42° C. for 30 sec, then returned to ice for 5 min. […] Plates were inverted and incubated for 16 hrs at 37° C., followed by quantification of total colony numbers.
# Ligations were performed in both buffers using 50 ng of AhdI-linearized pUC19 double-stranded DNA (containing single-base overhangs) following the conditions described in Example 1. A total of 10 pg DNA (40 μl of a 1:20 dilution of the SOC outgrowth) was used per plate and transformants were counted after 16 hrs at 37° C.
smiles,measurement,setting,value
"CC(O)CO (stereo not drawn) [1,2-PrD, 1,2-propanediol]",Recircularization Enhancement,[1],11-fold
same,Enhancement of T4 DNA ligase activity (ligation efficiency) in titer reaction,[2],4 fold
same,Transformants per 10 pg DNA compared with PEG-containing Quick Ligase buffer,[3],enhanced DNA ligation at least as much as PEG containing Quick Ligase; also recorded: achieved the level of transformation expected or greater than in PEG-containing (quick ligase) buffers
